Assay results from ChEMBL document CHEMBL1201862, “PubChem BioAssay data set” (2004).
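Step 1: Grow cells in 96-well plates. Step 2: Expose to compound for 48 hours at 5 concentrations. Step 3: Interpolate endpoints linearly; if unreached, use highest concentration. GI50: concentration for 50% inhibition of growth.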 Active and inactive are the calls of the source. Rule as the data show it: active = GI50 up to about 1.1 µM and inactive = higher.

Experiments:
Assay in all cases: DTP human tumour cell line panel, 48 h
786-0 = test system: 786-0
COLO 205 = test system: COLO 205
HCT-116 = test system: HCT-116
HOP-92 = test system: HOP-92
IGROV-1 = test system: IGROV-1
M14 = test system: M14
Malme-3M = test system: Malme-3M
NCI-H226 = test system: NCI-H226
NCI-H522 = test system: NCI-H522
SK-MEL-5 = test system: SK-MEL-5
SN12C = test system: SN12C
SNB-75 = test system: SNB-75
TK-10 = test system: TK-10
Hs-578T = test system: Hs-578T
MDA-MB-435 = test system: MDA-MB-435
NCI/ADR-RES = test system: NCI/ADR-RES
PC-3 = test system: PC-3
A498 = test system: A498

Measured: GI50

CC(C)(C)OC(=O)N[C@H]1CC(=O)c2ccccc2N(CC(=O)O)C1=O
inactive: 786-0 > 100 µM | COLO 205 > 100 µM | HCT-116 26.5 µM | HOP-92 > 100 µM | IGROV-1 > 100 µM | M14 > 100 µM | Malme-3M 19.9 µM | NCI-H226 > 100 µM | NCI-H522 > 100 µM | SK-MEL-5 > 100 µM | SN12C > 100 µM | SNB-75 81.1 µM | TK-10 > 100 µM

COc1cc2c(/C=C3/C(=O)Nc4ccc(O)cc43)c(Cl)n(Cc3ccccc3)c2cc1C
active: 786-0 0.222 µM | COLO 205 1.04 µM | HCT-116 0.421 µM | Hs-578T 0.354 µM | IGROV-1 0.682 µM | M14 0.6 µM | MDA-MB-435 0.078 µM | Malme-3M 0.24 µM | NCI-H226 0.948 µM | NCI/ADR-RES 0.574 µM | PC-3 0.897 µM | SK-MEL-5 0.266 µM | SNB-75 0.979 µM
inactive: HOP-92 12.8 µM | NCI-H522 1.22 µM | SN12C 6.17 µM | TK-10 3.36 µM

CC(=O)O[C@]12CCC[C@H]1C1(O)C(O)CCC[C@H]12 (some centres undefined)
inactive: 786-0 > 100 µM | COLO 205 > 100 µM | HCT-116 > 100 µM | M14 > 100 µM | Malme-3M > 100 µM | NCI-H226 > 100 µM | NCI-H522 > 100 µM | SK-MEL-5 > 100 µM | SN12C > 100 µM | SNB-75 > 100 µM | TK-10 > 100 µM

COC(CN1C=C(Sc2ccccc2)CC1)OC
inactive: 786-0 36.4 µM | A498 48.2 µM | COLO 205 22.6 µM | HCT-116 29.5 µM | HOP-92 26.9 µM | IGROV-1 53.2 µM | M14 33.7 µM | Malme-3M 35.9 µM | NCI-H226 33.3 µM | SK-MEL-5 18.9 µM | SN12C 33.9 µM | SNB-75 19 µM | TK-10 32.7 µM

CCc1cccc(C(C)C)c1NC(=O)C(=O)C1C(=O)NC(=O)NC1=O
inactive: 786-0 > 100 µM | A498 > 100 µM | COLO 205 > 100 µM | HCT-116 > 100 µM | HOP-92 > 100 µM | IGROV-1 > 100 µM | M14 > 100 µM | Malme-3M > 100 µM | NCI-H226 > 100 µM | NCI-H522 > 100 µM | SK-MEL-5 > 100 µM | SN12C > 100 µM | SNB-75 69.5 µM | TK-10 > 100 µM

CCOC(OC1=C(C#N)CCC1)C(C)[Se]c1ccccc1 (centres undefined)
inactive: 786-0 14.4 µM | A498 > 100 µM | COLO 205 27.5 µM | HCT-116 18.8 µM | HOP-92 24.4 µM | IGROV-1 25.8 µM | M14 16.1 µM | Malme-3M 12.7 µM | NCI-H226 19.7 µM | NCI-H522 13.5 µM | SK-MEL-5 15.8 µM | SN12C 14.7 µM | SNB-75 22.3 µM | TK-10 > 100 µM

CC1CC(=O)C(C(O)CC2CC(=O)N(c3ccccc3)C(=O)C2)C(C)C1 (centres undefined)
inactive: 786-0 > 100 µM | A498 > 100 µM | COLO 205 > 100 µM | HCT-116 > 100 µM | HOP-92 > 100 µM | IGROV-1 > 100 µM | M14 > 100 µM | Malme-3M > 100 µM | NCI-H226 > 100 µM | NCI-H522 > 100 µM | SN12C > 100 µM | SNB-75 > 100 µM | TK-10 > 100 µM

CCCCCCCCOCC(CO)OCCCCCCCC (centres undefined)
inactive: 786-0 19.6 µM | A498 18.8 µM | COLO 205 20.6 µM | HCT-116 19.4 µM | HOP-92 21.8 µM | IGROV-1 21.7 µM | M14 26.1 µM | Malme-3M 19.6 µM | NCI-H226 24.4 µM | SK-MEL-5 17.9 µM | SN12C 17.4 µM | TK-10 19.2 µM

O=C(CSc1nc(-c2ccccc2)c(-c2ccccc2)[nH]1)NNC(=S)Nc1ccccc1
inactive: 786-0 > 100 µM | A498 > 100 µM | COLO 205 61.7 µM | HCT-116 97.1 µM | HOP-92 36.2 µM | IGROV-1 82.4 µM | M14 94.6 µM | Malme-3M > 100 µM | NCI-H226 > 100 µM | NCI-H522 19.2 µM | SK-MEL-5 46.1 µM | SN12C > 100 µM | SNB-75 > 100 µM | TK-10 53.2 µM

COC(=O)C(Cc1cc(OC)c(OC)c(OC)c1)c1ccc(OC)cc1 (centres undefined)
inactive: 786-0 > 100 µM | A498 > 100 µM | COLO 205 > 100 µM | HCT-116 > 100 µM | HOP-92 85.9 µM | IGROV-1 > 100 µM | M14 > 100 µM | Malme-3M > 100 µM | NCI-H226 > 100 µM | NCI-H522 90.4 µM | SK-MEL-5 45 µM | SN12C > 100 µM | TK-10 > 100 µM
